Experimental findings from patent publication US11179341B2, “Self-righting articles” (priority 2017, dated 2021) are described below.

For this assay, the system named is Micrococcus lysodeikticus cells. The assay is described as follows: Lysozyme enzyme activity assay. The format is biochemical. The note with it: micropost tips 80% lysozyme and 20% PEO 200 k, versus uncompressed powder. The method, then:
To measure the activity of lysozyme, the assay provided by Sigma Aldrich was used which measures the amount of lysed Micrococcus lysodeikticus cells. Briefly, a 200 unit/mL Lysozyme solution in 50 mM Potassium Phosphate Buffer was added to a 0.015% [w/v] Micrococcus lysodeikticus cell suspension in the same buffer. The decrease was recorded in A450 over 5 minutes. Nine micropost tips were fabricated from 80% lysozyme and 20% PEO 200 k and dissolved sets of three micropost tips together. Triplicate assays were performed on each dissolved solution for a total of nine tests and the results were compared to the results of a solution made with lysozyme that was not compressed into a micropost tip.

As for lysozyme, the “lysozyme activity after the manufacturing process” value is “maintain their activity”.
